From patent US5563140A, “Use of 1-(aminoalkyl)-3-(benzyl)-quinoxaline-2-one derivatives for the preparation of neuroprotective compositions” (Phafag Aktiengesellschaft, priority 1991, dated 1996) come the findings set out here.

Each structure is given as a SMILES string.

One data set has as its system glutamate receptors. The data set is described as follows: Microiontophoresis at inner hair cell synapse of guinea pig cochlea: glutamate-induced spike activity. It is filed as in vivo, guinea pigs. The protocol:
The effectiveness of the 1-(aminoalkyl)-3-(benzyl)-quinoxaline-2-one derivatives as potential glutamate receptor antagonists was studied in the light of the neurotransmission between the inner hair cells (IHC) and the peripheral dendrites of the afferent neurons in the mammalian cochlea.
(§1) Experiments were performed on adult pigmented guinea pigs (300-700 g) of both sexes, anaesthetized with a combination of Rompun (Bayer, Leverkusen, Germany) and Innovar-Vet (Pitman-Moore, Mundelin, Ill., U.S.A.). Supplementary low doses of pentobarbital (Nembutal, Abbott, Chicago, U.S.A.) were given periodically throughout the experiments. Rectal temperature was maintained within physiological limits. After tracheotomy for artificial respiration, the auditory bulla was approached ventrolaterally and the cochlea was exposed. A small opening was drilled into the cochlea bone over the pigmented stria vascularis and the ligamentum spiale of the third turn.
(§2) The occurrence of phasic activity was used to identify the location precisely, since such activity occurs in the immediate vicinity of the initial postsynaptic structures.
Recordings of extracellular action potentials were obtained using a 2M NaCl-filled barrel of the 5-barrel glass micropipette. […]

The subject of data set [1] is membrane response to acetylcholine. The data set is described as follows: Microiontophoresis at inner hair cell synapse of guinea pig cochlea: acetylcholine-induced firing (selectivity). It is filed as in vivo, guinea pigs. The conditions noted are these: acetylcholine 60 nA; Caroverine 30 nA, FIG. 3. The method, then:
as §1, §2
Recordings of extracellular action potentials were obtained using a 2M NaCl-filled barrel of the 5-barrel glass micropipette. […] Three other channels of the micropipette contained the solutions to be ejected microiontophoretically with the appropriate anionic and cationic currents: L-glutamic acid (0.5M, pH 3.5, adjusted with HCl); Caroverine-HCl (1-diethylaminoethyl-3-(p-methoxybenzyl)-1,2-dihydro-quinoxaline-2-one, 0.05M, natural pH=6.0). […]

Another data set relates to tinnitus. The data set is described as follows: Pilot clinical study in patients suffering from tinnitus. It is filed as in vivo. The conditions noted are these: 70-160 mg. The method, then: The neuroprotective effect of Caroverine was tested in a clinical study with patients who suffered from tinnitus. The etiology of tinnitus can be very different in different patients. One of the most frequent tinnitus type is, however, the cochlear tinnitus. If a functional disturbance between the IHC and the peripheral dendrites of the […] neurons is deemed to be the initiating, etiological factor, then this is called a "cochlear synaptic tinnitus". A neuroprotective pharmaceutical like Caroverine should therefore have a positive effect on the cochlear synaptic tinnitus.
In a pilot study Caroverine was applied to 72 patients suffering from tinnitus. Caroverine was applied intravenously (160 mg/100 ml physiological NaCl-solution). The real dosage depended on the tinnitus reduction perceived by the individual patient and varied between 70 and 160 mg.
The effectiveness of Caroverine was measured by a subjective rating and tinnitus-matching before and after the infusion of the drug.

For a further data set, the system named is central nervous system. The data set can be described thus: Double-blind, placebo-controlled clinical study, EEG-mapping. In kind it is in vivo, persons. The conditions noted are these: 40 mg or 80 mg, orally or intravenously. The method, then: In a double-blind, placebo-controlled clinical study on a group of 15 persons, the cerebral effect of Caroverine was tested by means of electro-encephalogram (EEG)-mapping. The 15 caucasian probands were 7 females and 8 males between 20 and 35 years old (average 27 years). The weight ranged between 53 and 84 kg (average weight: 69 kg) and the height varied between 162 to 186 cm (average height: 175 cm).
Doses of 40 mg or 80 mg of Caroverine or placebo were administered either orally or intravenously for random sampling to the persons in weekly intervals. EEG-tracings as well as recordings of pulse, blood pressure and side effects were carried out 0, 1, 2, 4, 6 and 8 hours after medication.

Data set [2] can be described thus: Side-effects on application, also in high doses. It is filed as in vivo. The conditions noted are these: Caroverine and its salts. An excerpt: Thus, it is experimentally established that 1-(aminoalkyl)-3-(benzyl)-quinoxaline-2-one derivatives are a potent, reversible and selective class of new glutamate receptor antagonists on the excitatory […] synapses of the cochlear inner hair cells.

Take `N[C@@H](CCC(=O)O)C(=O)O` [Glutamate, L-glutamic acid]: the “effect on firing rate of fibers in the synaptic region of IHC” value in the data set on glutamate receptors (agonist alone, n=29 out of 31 fibers) is given as “enhances the firing rate”.
For the compound `CCN(CC)CCn1c(=O)c(Cc2ccc(O)cc2)nc2ccccc21` [1-diethylaminoethyl-3-(p-hydroxy)-1,2-dihydroquinoxaline-2-one], the “effectiveness as glutamate receptor antagonist” value with glutamate receptors (cochlear inner hair cell synapses) is reported as “effective”.
Regarding `CCN(CC)CCn1c(=O)c(Cc2ccc(OC)cc2)nc2ccccc21` [Caroverine], in data set [1], the “effect on acetylcholine-induced firing rate” value is reported as “no effect”. For the same compound, the “patients noting a tinnitus reduction of at least 50% in absolute value” in the data set with tinnitus (immediately after intravenous infusion, 72 patients) amounted to 66.7%. Moreover, the side-effects entry in the data set with tinnitus (intravenous infusion) is recorded as “No sincere side-effects”; in data set [2], “no critical side-effects”. The “time of maximum effect after medication” value in the data set on central nervous system is given as “around 1 hour”.
